Patent US8318759B2, “Pyrrolidine derivatives as NK3 receptor antagonists” (Hoffmann-La Roche Inc., priority 2009, dated 2012)

Molecular target: T1, human NK3 receptor (Homo sapiens, UniProt P29371)
T1 construct: expressed in transfected cells; host or cells: HEK293 cells (transient expression), membranes
T1 sequence (P29371 1-465): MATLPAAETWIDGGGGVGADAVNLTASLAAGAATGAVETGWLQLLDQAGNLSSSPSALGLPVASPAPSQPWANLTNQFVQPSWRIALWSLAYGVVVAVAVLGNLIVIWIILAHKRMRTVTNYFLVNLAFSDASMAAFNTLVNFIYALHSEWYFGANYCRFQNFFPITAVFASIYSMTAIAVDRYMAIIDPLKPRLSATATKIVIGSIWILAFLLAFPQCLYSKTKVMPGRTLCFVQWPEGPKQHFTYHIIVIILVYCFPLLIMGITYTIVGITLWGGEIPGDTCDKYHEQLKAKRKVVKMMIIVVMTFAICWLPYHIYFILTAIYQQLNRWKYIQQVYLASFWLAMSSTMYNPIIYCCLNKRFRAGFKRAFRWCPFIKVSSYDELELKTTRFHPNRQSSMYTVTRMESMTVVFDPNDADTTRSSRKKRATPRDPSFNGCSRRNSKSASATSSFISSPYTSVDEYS
Test: [3H]SR142801 competition binding assay
Conditions: membrane from HEK293 cells transiently expressing recombinant human NK3 receptor; radioligand [3H]SR142801; Ki from IC50 by Cheng-Prussoff equation
Method: [^3H]SR142801 Competition Binding Assay
hNK3 receptor binding experiment were performed using [^3H]SR142801 (Catalog No. TRK1035, specific activity: 74.0 Ci/mmol, Amersham, GE Healthcare UK limited, Buckinghamshire, UK) and membrane isolated from HEK293 cells transiently expressing recombinant human NK3 receptor. After thawing, the membrane homogenates were centrifuged at 48,000×g for 10 min at 4° C., the pellets were resuspended in the 50 mM Tris-HCl, 4 mM MnCl2, 1 μM phosphoramidon, 0.1% BSA binding buffer at pH 7.4 to a final assay concentration of 5 μg protein/well. […] At the end of the incubation, membranes were filtered onto unitfilter (96-well white microplate with bonded GF/C filter preincubated 1 h in 0.3% PEI+0.3% BSA, Packard BioScience, Meriden, Conn.) with a Filtermate 196 harvester (Packard BioScience) and washed 4 times with ice-cold 50 mM Tris-HCl, pH 7.4 buffer. Nonspecific binding was measured in the presence of 10 μM SB222200 for both radioligands. The radioactivity on the filter was counted (5 min) on a Packard Top-count microplate scintillation counter with quenching correction after addition of 45 μl of microscint 40 (Canberra Packard S. A., Zürich, Switzerland) and shaking for 1 h. Inhibition curves were fitted according to the Hill equation: y=100/(1+(x/IC50)^nH), where nH=slope factor using Excel-fit 4 software (Microsoft). IC50 values were derived from the inhibition curve and the affinity constant (Ki) values were calculated using the Cheng-Prussoff equation Ki=IC50/(1+[L]/KD) where [L] is the concentration of radioligand and KD is its dissociation constant at the receptor, derived from the saturation isotherm. All experiments were performed in duplicate and the mean±standard error (SEM) of the individual Ki values was calculated.

| Compound | Ki [nM] |
| --- | --- |
| CN(C[C@H]1CN(C(=O)C2CCN(C(=O)C3(C)CC3)CC2)C[C@@H]1c1ccc(Cl)cc1)c1ccc(C#N)cn1 [Example 51, 6-({(3S,4S)-4-(4-Chloro-phenyl)-1-[1-(1-methyl-cyclopropanecarbonyl)-piperidine-4-carbonyl]-pyrrolidin-3-ylmethyl}-methyl-amino)-nicotinonitrile] | 69.9 |
| CS(=O)(=O)N1CCN(C(=O)N2CC(CNc3ncc(C#N)cn3)C(c3ccc(Cl)c(Cl)c3)C2)CC1 (racemic) [Example 31, (3SR,4RS)-2-{[4-(3,4-Dichloro-phenyl)-1-(4-methanesulfonyl-piperazine-1-carbonyl)-pyrrolidin-3-ylmethyl]-amino}-pyrimidine-5-carbonitrile] | 80 |
| CN(C[C@H]1CN(C(=O)C2CCN(C(=O)C3(C)CC3)CC2)C[C@@H]1c1ccc(Cl)c(Cl)c1)c1ccc(C#N)cn1 [Example 64, 6-({(3S,4S)-4-(3,4-Dichloro-phenyl)-1-[1-(1-methyl-cyclopropanecarbonyl)-piperidine-4-carbonyl]-pyrrolidin-3-ylmethyl}-methyl-amino)-nicotinonitrile] | 31.8 |
| CS(=O)(=O)N1CCN(C(=O)N2C[C@H](CSc3ccc(Cl)cc3)[C@@H](c3ccc(Cl)c(Cl)c3)C2)CC1 (racemic) [Example 2] | 45.9 |
| CS(=O)(=O)N1CCN(C(=O)N2C[C@H](CSc3ccc(C(F)(F)F)cc3)[C@@H](c3ccc(Cl)c(Cl)c3)C2)CC1 (racemic) [Example 1, (3SR,4RS)-[3-(3,4-Dichloro-phenyl)-4-(4-trifluoromethyl-phenylsulfanylmethyl)-pyrrolidin-1-yl]-(4-methanesulfonyl-piperazin-1-yl)-methanone] | 49.6 |
| CN(C[C@H]1CN(C(=O)C2CCN(C(=O)C3(C)CC3)CC2)C[C@@H]1c1ccc(F)cc1)c1ncc(C(F)(F)F)cn1 (racemic) [Example 47] | 71.6 |
| CS(=O)(=O)N1CCN(C(=O)N2C[C@H](CSc3ccc(C#N)cc3)[C@@H](c3ccc(Cl)c(Cl)c3)C2)CC1 (racemic) [Example 4, (3SR,4RS)-4-[4-(3,4-Dichloro-phenyl)-1-(4-methanesulfonyl-piperazine-1-carbonyl)-pyrrolidin-3-ylmethylsulfanyl]-benzonitrile] | 61.7 |
| CN(C[C@H]1CN(C(=O)C2CCN(C(=O)C3(C)CC3)CC2)C[C@@H]1c1ccc(Cl)cc1)c1ccc(C(F)(F)F)cn1 [Example 53, [4-((3S,4S)-3-(4-Chloro-phenyl)-4-{[methyl-(5-trifluoromethyl-pyridin-2-yl)-amino]-methyl}-pyrrolidine-1-carbonyl)-piperidin-1-yl]-(1-methyl-cyclopropyl)-methanone] | 85.6 |
| CN(C[C@H]1CN(C(=O)C2CCN(C(=O)C3(C)CC3)CC2)C[C@@H]1c1ccc(Cl)cc1)c1ncc(C(F)(F)F)cn1 [Example 55, ((3S,4S)-3-(4-Chloro-phenyl)-4-{[methyl-(5-trifluoromethyl-pyrimidin-2-yl)-amino]-methyl}-pyrrolidin-1-yl)-[1-(1-methyl-cyclopropanecarbonyl)-piperidin-4-yl]-methanone] | 42.9 |
| CS(=O)(=O)N1CCN(C(=O)N2C[C@H](CNc3ccc(Cl)cn3)[C@@H](c3ccc(Cl)c(Cl)c3)C2)CC1 (racemic) [Example 30] | 36.1 |
| Cc1cc(C(=O)N2C[C@H](CNc3ncc(Cl)cn3)[C@@H](c3ccc(Cl)c(Cl)c3)C2)cnn1 (racemic) [Example 27] | 24.7 |
| CS(=O)(=O)N1CCN(C(=O)N2C[C@@H](CNc3ccc(C(F)(F)F)cn3)[C@H](c3ccc(Cl)c(Cl)c3)C2)CC1 [Example 14, (3R,4R)-{3-(3,4-Dichloro-phenyl)-4-[(5-trifluoromethyl-pyridin-2-ylamino)-methyl]-pyrrolidin-1-yl}-(4-methanesulfonyl-piperazin-1-yl)-methanone] | 92.4 |
| CC(Nc1ccc(C(F)(F)F)cn1)[C@H]1CN(C(=O)N2CCN(S(C)(=O)=O)CC2)C[C@@H]1c1ccc(Cl)c(Cl)c1 (mixture of isomers) [Example 37, (3SR,4RS) {3-(3,4-Dichloro-phenyl)-4-[1-(RS)-(5-trifluoromethyl-pyridin-2-ylamino)-ethyl]-pyrrolidin-1-yl}-(4-methanesulfonyl-piperazin-1-yl)-methanone and (3SR,4RS) {3-(3,4-Dichloro-phenyl)-4-[1-(SR)-(5-trifluoromethyl-pyridin-2-ylamino)-ethyl]-pyrrolidin-1-yl}-(4-methanesulfonyl-piperazin-1-yl)-methanone] | 54.9 |

The next molecules have a lower Ki than those just listed; values first:

| Ki [nM] | Compound |
| --- | --- |
| 10.9 | Cc1cc(C(=O)N2C[C@H](CNc3ccc(C(F)(F)F)cn3)[C@@H](c3ccc(Cl)c(Cl)c3)C2)c(C)nn1 (racemic) [Example 23] |
| 2.4 | CS(=O)(=O)N1CCN(C(=O)N2C[C@H](CSc3ccc(C(F)(F)F)cn3)[C@@H](c3ccc(Cl)c(Cl)c3)C2)CC1 (racemic) [Example 5, (3SR,4RS)-[3-(3,4-Dichloro-phenyl)-4-(5-trifluoromethyl-pyridin-2-ylsulfanylmethyl)-pyrrolidin-1-yl]-(4-methanesulfonyl-piperazin-1-yl)-methanone] |
| 22.8 | CC1(C(=O)N2CCC(C(=O)N3C[C@H](CNc4ncc(C(F)(F)F)cn4)[C@@H](c4ccc(F)cc4)C3)CC2)CC1 (racemic) [Example 46] |
| 1.2 | Cc1cc(C(=O)N2C[C@H](CNc3ncc(C(F)(F)F)cn3)[C@@H](c3ccc(Cl)c(Cl)c3)C2)cnn1 [Example 58, {(3S,4S)-3-(3,4-Dichloro-phenyl)-4-[(5-trifluoromethyl-pyrimidin-2-ylamino)-methyl]-pyrrolidin-1-yl}-(6-methyl-pyridazin-4-yl)-methanone] |
| 11 | Cc1cc(C(=O)N2C[C@H](CNc3ccc(C(F)(F)F)cn3)[C@@H](c3ccc(Cl)c(Cl)c3)C2)cnn1 (racemic) [Example 20] |
| 22.3 | C[C@@H](Nc1ccc(C(F)(F)F)cn1)[C@H]1CN(C(=O)N2CCN(S(C)(=O)=O)CC2)C[C@@H]1c1ccc(Cl)c(Cl)c1 (racemic) [Example 38, (3SR,4RS) {3-(3,4-Dichloro-phenyl)-4-[1-(RS)-(5-trifluoromethyl-pyridin-2-ylamino)-ethyl]-pyrrolidin-1-yl}-(4-methanesulfonyl-piperazin-1-yl)-methanone] |
| 20 | CS(=O)(=O)N1CCN(C(=O)N2CC(CNc3ccc(C(F)(F)F)cn3)C(c3ccc(Cl)c(Cl)c3)C2)CC1 (racemic) [Example 12, (3SR,4RS)-{3-(3,4-Dichloro-phenyl)-4-[(5-trifluoromethyl-pyridin-2-ylamino)-methyl]-pyrrolidin-1-yl}-(4-methanesulfonyl-piperazin-1-yl)-methanone] |
| 9.6 | N#Cc1ccc(C(=O)N2CC(CNc3ccc(C(F)(F)F)cn3)C(c3ccc(Cl)c(Cl)c3)C2)cn1 (racemic) [Example 17, (3SR,4RS)-5-{3-(3,4-Dichloro-phenyl)-4-[(5-trifluoromethyl-pyridin-2-ylamino)-methyl]-pyrrolidine-1-carbonyl}-pyridine-2-carbonitrile] |
| 19.5 | CC(=O)N1CCC(C(=O)N2C[C@H](CNc3ncc(Cl)cn3)[C@@H](c3ccc(Cl)c(Cl)c3)C2)CC1 (racemic) [Example 25] |
| 9 | Cc1cc(C(=O)N2C[C@H](CNc3ncc(C(F)(F)F)cn3)[C@@H](c3ccc(Cl)c(Cl)c3)C2)cnn1 (racemic) [Example 35] |
| 2.3 | CN(C[C@H]1CN(C(=O)C2CCN(C(=O)C3(C)CC3)CC2)C[C@@H]1c1ccc(Cl)c(Cl)c1)c1ncc(C(F)(F)F)cn1 [Example 59, ((3S,4S)-3-(3,4-Dichloro-phenyl)-4-{[methyl-(5-trifluoromethyl-pyrimidin-2-yl)-amino]-methyl}-pyrrolidin-1-yl)-[1-(1-methyl-cyclopropanecarbonyl)-piperidin-4-yl]-methanone] |
| 6.6 | CS(=O)(=O)N1CCN(C(=O)N2C[C@H](CNc3ccc(C(F)(F)F)cn3)[C@@H](c3ccc(Cl)c(Cl)c3)C2)CC1 [Example 13, (3S,4S)-{3-(3,4-Dichloro-phenyl)-4-[(5-trifluoromethyl-pyridin-2-ylamino)-methyl]-pyrrolidin-1-yl}-(4-methanesulfonyl-piperazin-1-yl)-methanone] |
| 16.5 | CC1(C(=O)N2CCC(C(=O)N3C[C@H](CNc4ncc(Cl)cn4)[C@@H](c4ccc(Cl)c(Cl)c4)C3)CC2)CC1 (racemic) [Example 24] |
